Assay results from US10105362B2, “Anti-tumor use of anagrelide and derivatives thereof” (SHANGHAI INSTITUTE OF MATERIA MEDICA, CHINESE ACADEMY OF …, priority 2013, dated 2018).
pIC50: −log10 of the molar value. “Also recorded” adds a separate entry of the source.

How the values were obtained:
A498 cells = assay: MTT colorimetry, tumor cell growth/viability; assay type: cell-based, human; conditions: for pIC50: A498, MTT, 72 h
Experimental: (§1) Logarithmic growth phase cells were seeded in 96-well culture plate in appropriate density (100 μl in each well). After overnight cultivation, different concentrations of drugs were added and treated for 72 h, while three wells were set for each concentration. After treatment was completed, 20 μl/well of MTT (5 mg/ml in PBS) was added to each well and affected for 3-5 hours, the medium was suctioned out completely and 100 ul/well of DMSO was added, oscillated on decolorization shaker in dark place for 10 minutes until the Blue purple crystals formazan (formazan) was completely dissolved, the OD (Optical Density) value was detected with a microplate reader (detection wavelength: […]; reference wavelength: 650 nM). In blank group, culture medium only added without cells, and in control group, DMSO in the same volume as that for drug was added. Cell viability was calculated=(OD value of experimental group−OD value of control group)/(OD value of control group−OD value of blank group). Tumor cells from different tissue source were selected, and the concentration of Anagrelide was 1 μM and 50 μM, OD value was MTT detected after administrated for 72 hours, and the cell viability was calculated using cell viability=(administered group OD-blank group OD)/(control group OD-blank group OD)*100%, and was mapped by using GraphPadPrism 4 software. IC50 values on this seven cell lines of Anagrelide were detect by MTT method, and all of them are less than 100 nM (Table 2).

Bel7404 cells = assay: MTT colorimetry, tumor cell growth/viability; assay type: cell-based, human; conditions: 1 μM, 72 hours
Experimental: as §1

FHCC98 cells = assay: MTT colorimetry, tumor cell growth/viability; assay type: cell-based, human; conditions: 1 μM, 72 hours
Experimental: as §1

H4 cells = assay: MTT colorimetry, tumor cell growth/viability; assay type: cell-based, human; conditions: 1 μM, 72 hours
Experimental: as §1

HeLa cells [1] = assay: MTT colorimetry, tumor cell growth/viability; assay type: cell-based, human; conditions: 1 μM, 72 hours
Experimental: as §1

SMMC7721 cells = assay: MTT colorimetry, tumor cell growth/viability; assay type: cell-based, human; conditions: 1 μM, 72 hours
Experimental: as §1

SW1116 cells = assay: MTT colorimetry, tumor cell growth/viability; assay type: cell-based, human; conditions: 1 μM, 72 hours
Experimental: as §1

DU145 cells = assay: MTT colorimetry, tumor cell growth/viability; assay type: cell-based, human; conditions: 50 μM, 72 hours
Experimental: as §1, with “software.” for “software. IC50 values on this seven cell lines of Anagrelide were detect by MTT method, and all of them are less than 100 nM (Table 2).”

H1299 cells = assay: MTT colorimetry, tumor cell growth/viability; assay type: cell-based, human; conditions: 50 μM, 72 hours
Experimental: as §1, with “software.” for “software. IC50 values on this seven cell lines of Anagrelide were detect by MTT method, and all of them are less than 100 nM (Table 2).”

MDA-MB-231 cells = assay: MTT colorimetry, tumor cell growth/viability; assay type: cell-based, human; conditions: 50 μM, 72 hours
Experimental: as §1, with “software.” for “software. IC50 values on this seven cell lines of Anagrelide were detect by MTT method, and all of them are less than 100 nM (Table 2).”

MDA-MB-468 cells = assay: MTT colorimetry, tumor cell growth/viability; assay type: cell-based, human; conditions: 50 μM, 72 hours
Experimental: as §1, with “software.” for “software. IC50 values on this seven cell lines of Anagrelide were detect by MTT method, and all of them are less than 100 nM (Table 2).”

U87-MG cells = assay: MTT colorimetry, tumor cell growth/viability; assay type: cell-based, human; conditions: 50 μM, 72 hours
Experimental: as §1, with “software.” for “software. IC50 values on this seven cell lines of Anagrelide were detect by MTT method, and all of them are less than 100 nM (Table 2).”

Wi38 cells = assay: MTT colorimetry, tumor cell growth/viability; assay type: cell-based, human; conditions: 50 μM, 72 hours
Experimental: as §1, with “software.” for “software. IC50 values on this seven cell lines of Anagrelide were detect by MTT method, and all of them are less than 100 nM (Table 2).”

HeLa cells [2] = assay: Cell migration detection via scratch experiment; assay type: cell-based, human; conditions: 100 nM, serum-free medium, up to 24 hours
Experimental: The bottom of the six-well plate was uniformly marked with horizontal strips by marker, and then the logarithmic growth phase cells were seeded in the plate by 120×10^4 /mL concentration to make the cells evenly cover the six-well plate, and cells were incubated under 37° C. overnight. Fresh serum-free medium was changed, after the cells were starved for 10 hours, the bottom of six-well plate was scratched perpendicularly to horizontal strips, and washed three times with serum-free medium. After the suspended cells were rinsed, serum-free medium was added and photographed in 0, 2, 6, 12, and 24 hours. Image J was used to calculate the moving distance of the cells. By Scratching assay (HeLa cells were used as an example), the effect of Anagrelide on tumor cell migration was detected.

[3] = system: human H4 transplantation tumor; assay: Human H4 transplantation tumor in nude mice, tumor growth; assay type: in vivo, BALB/c naked mouse; conditions: for anti-tumor effect (tumor volume, tumor growth): 21 days, vs vehicle control; for tumor weight: end of the experiment (day 21)
Experimental: (§2) Under aseptic conditions, tumor cells in the proliferation stage were taken. The cell concentration was adjusted after digestion, seeded at right armpit of nude mice, and the inoculated volume was 0.1 mL. Tumor diameter was measured with vernier caliper, after the tumor was grown to 200-300 mm^3, the tumor-bearing mice were selected, and randomly divided into 3 groups (n=4) according to the size of the tumors: negative control group, Anagrelide I (10 mg/kg), Anagrelide II (30 mg/kg). Each group was intragastric administrated, the day of administration was recorded as d1, the negative control group was given same amount of vehicle, and then the long and short diameters of tumor were measured twice a week, while the body weights of mice were weighed. At the 21th day of the administration, the animals were sacrificed and the tumor was dissected and weighed. Before the animals were sacrificed, eyeball was taken for blood sample, the number of white blood cell (WBC), red blood cell (RBC), concentration of hemoglobin (Hb) and number of platelet (PLT) were measured.

[4] = Body weight of tumor-bearing nude mice; assay type: in vivo, BALB/c naked mouse; conditions: 21 days
Experimental: as §2

[5] = Blood routine test of tumor-bearing nude mice (WBC, RBC, Hb, PLT); assay type: in vivo, BALB/c naked mouse; conditions: day 21, vs vehicle control
Experimental: as §2

[6] = animal experiments, Fleming and Buyniski 1979; cited from earlier work
phosphodiesterase (PDE) = conditions: subsequent studies; cited from earlier work

pIC50 (A498 cells): 7.28
pIC50 (A498 cells; Homo sapiens, A498, 72 h): > 7.00
blood routine test index (WBC, RBC, Hb, PLT) ([5]; 10 mg/kg intragastric): didn't show any significant decrease
blood routine test index (WBC, RBC, Hb, PLT) ([5]; 30 mg/kg intragastric): didn't show any significant decrease
Compound: O=C1CN2Cc3c(ccc(Cl)c3Cl)N=C2N1 [Anagrelide, 6,7-dichloro-1,5-dihydro-imidazo [2,1-b] quinazolin-2 (3H)-one]
inhibition of cell growth (A498 cells; 1 μM, 72 hours, MTT, A498): significantly inhibited growth
inhibition of cell growth (Bel7404 cells): significantly inhibited growth
inhibition of cell growth (FHCC98 cells): significantly inhibited growth
inhibition of cell growth (H4 cells): significantly inhibited growth
inhibition of cell growth (HeLa cells [1]): significantly inhibited growth
inhibition of cell growth (SMMC7721 cells): significantly inhibited growth
inhibition of cell growth (SW1116 cells): significantly inhibited growth
inhibition of cell growth (DU145 cells): inhibited their growth
inhibition of cell growth (H1299 cells): inhibited their growth
inhibition of cell growth (MDA-MB-231 cells): inhibited their growth
inhibition of cell growth (MDA-MB-468 cells): inhibited their growth
inhibition of cell growth (U87-MG cells): inhibited their growth
inhibition of cell growth (Wi38 cells): inhibited their growth
healing speed of scratch (cell migration) (HeLa cells [2]): significantly inhibit the healing speed of scratch
anti-tumor effect (tumor volume, tumor growth) ([3]; 10 mg/kg intragastric): significant anti-tumor effect
tumor weight ([3]; 10 mg/kg intragastric): significantly lower than that of the vehicle control group
anti-tumor effect (tumor volume, tumor growth) ([3]; 30 mg/kg intragastric): significant anti-tumor effect
tumor weight ([3]; 30 mg/kg intragastric): significantly lower than that of the vehicle control group; also recorded: less than that of Anagrelide I (10 mg/kg) group
effect on animal body weight ([4]; 10 mg/kg intragastric): no significant difference from the negative control group
effect on animal body weight ([4]; 30 mg/kg intragastric): no significant difference from the negative control group
anti-thrombotic function [6]: significant anti-thrombotic function
phosphodiesterase (PDE) activity (phosphodiesterase (PDE)): capable of inhibiting phosphodiesterase (PDE) activity
